Assay results: article PMC3769973 (Organic & biomolecular chemistry, 2011)

Key:
[1] = target: proteasome β2 subunit (Homo sapiens, UniProt Q99436); assay: Competition assay versus MVB003 in HEK293T lysate, β2 band; type: biochemical
[2] = target: T1, proteasome β1 subunit (Homo sapiens, UniProt P28072); assay: Competition assay versus MVB003 in HEK293T lysate, β1 band; type: biochemical
[3] = target: proteasome β5 subunit (Homo sapiens, UniProt P28074); assay: Competition assay versus MVB003 in HEK293T lysate, β5 band; type: biochemical
[4] = target: T1, proteasome β1 subunit; assay: Competition assay versus MVB003 in living HEK cells, β1 band; type: cell-based; conditions: inhibitor 4 h
[5] = system: proteasome in living HEK cells

IC50 [1]	IC50 [2]	IC50 [3]	Potency in living HEK cells relative to NC001 [4]	Fold lower concentration for β5 inhibition compared to SylA ([3]; HEK lysate, Fig. 7)	Inhibition of β5 in HEK lysate ([3]; HEK lysate, at 100 nM inhibitor, Fig. 7)	Cell permeability [5]	Structure (SMILES)
				about 100 fold		cell permeable	CC(C)C[C@H](NC(=O)[C@@H](NC(=O)N[C@H](C(=O)NCc1ccccc1)C(C)C)C(C)C)C(=O)N[C@@H](CC(C)C)C(=O)[C@@]1(C)CO1 [Compound 15, Benzylamide-Val-urea-Val-Leu2-EK]
> 50000 nM	> 50000 nM						CCCCCCCCCCNC(=O)N[C@H](C(=O)N[C@@H](CC(C)C)C(=O)N[C@@H](CC(C)C)C(=O)[C@@]1(C)CO1)C(C)C [Compound 16, Decyl-urea-Val-Leu2-EK]

More lines, now with the values behind:

Structure (SMILES)	IC50 [1]	IC50 [2]	IC50 [3]	Potency in living HEK cells relative to NC001 [4]	Fold lower concentration for β5 inhibition compared to SylA ([3]; HEK lysate, Fig. 7)	Inhibition of β5 in HEK lysate ([3]; HEK lysate, at 100 nM inhibitor, Fig. 7)	Cell permeability [5]
CC(C)C[C@H](NC(=O)[C@@H](NC(=O)N[C@H](C(=O)OC(C)(C)C)C(C)C)C(C)C)C(=O)[C@@]1(C)CO1 [Compound 5, tBuO-Val-urea-Val-Leu-EK2]	> 50000 nM	460 nM	~50000 nM	fivefold higher potency			
CC(C)C[C@H](NC(=O)[C@@H](NC(=O)N[C@H](C(=O)O)C(C)C)C(C)C)C(=O)[C@@]1(C)CO1 [Compound 6, HO-Val-urea-Val-Leu-EK]	> 50000 nM	1400 nM	> 50000 nM				
CC(C)C[C@H](NC(=O)[C@@H](NC(=O)N[C@H](C(=O)NCc1ccccc1)C(C)C)C(C)C)C(=O)[C@@]1(C)CO1 [Compound 7, Benzylamide-Val-urea-Val-Leu-EK]	> 50000 nM	520 nM	2900 nM				
CC(C)C[C@H](NC(=O)[C@@H](NC(=O)N[C@H](C(=O)OC(C)(C)C)C(C)C)C(C)C)C(=O)N[C@@H](CC(C)C)C(=O)[C@@]1(C)CO1 [Compound 13, tBuO-Val-urea-Val-Leu2-EK]	690 nM	1300 nM	16 nM		about 100 fold	fully inhibits	cell permeable
CC(C)C[C@H](NC(=O)[C@@H](NC(=O)N[C@H](C(=O)O)C(C)C)C(C)C)C(=O)N[C@@H](CC(C)C)C(=O)[C@@]1(C)CO1 [Compound 14, HO-Val-urea-Val-Leu2-EK]			480 nM				
